Experimental data published in patent US10813919B2, “Use of histone deacetylase inhibitors for enhancing immunotherapies” (Indiana University Research and Technology Corporation, priority 2016, dated 2020).

Experiments:
arginase-1 (Arg1) = assay: Quantitative real-time PCR of Arginase 1 in J774M cells; format: cell-based; conditions: 0.5 μM, 1 μM, 2 μM vs untreated control (p=0.003; 0.0041; 0.0043)
Protocol: Quantitative real-time PCR: mRNA was extracted from J774M cells that were treated±entinostat using standard Trizol protocols. RNA concentration and purity were determined through measurement of A260/280 ratios with a Synergy Hi Multi-Mode reader. cDNA was prepared using the iScript kit (Bio-Rad) and qPCR was performed using an Applied Biosystems 7900HT fast real time PCR system. Sequence Detection Systems software v2.3 was used to identify the cycle threshold (Ct) values and to generate gene expression curves. Data were normalized to Gapdh expression and fold change was calculated. The primers used for target genes were: Gapdh_foward 5′-[…]-3′, Gapdh_reverse 5′-[…]-3′ (SEQ ID NO:1), Arginase 1_forward 5′-[…]-3′ (SEQ ID NO:2), and Arginase 1_reverse 5′-[…]-3′ (SEQ ID NO:3).

[1] = test system: G-MDSCs or M-MDSCs isolated from RENCA tumors; assay: T cell suppression assay, ex vivo, MDSCs isolated from RENCA tumors of treated mice; format: cell-based, mouse
Protocol: T cell isolation & activation: Whole spleens were harvested from naïve mice, mashed and passed through a 70 μm strainer. Cells were then washed, lysed with RBC lysis buffer (Affymetrix 00-4333-57), and cultured in RPMI medium with 10% FBS, Pen (100 units/ml)-Strep ([…]), 1 mM sodium pyruvate, […] non-essential amino-acids, 2 mM L-Glutamine, 55 μM BME, with anti-CD3 (eBioscience 16-0031-85) and anti-CD28 (eBioscience 5012503) for approximately 24 hours. CD8^+ T cells were then isolated using a CD8a^+ T cell isolation kit from Miltenyi Biotec (130-104-075), stained with CFSE (NC9759757), according to the manufacturer's protocol, and co-cultured with MDSCs as described below. MDSC Isolation: MDSCs were isolated from RENCA tumors of each group using Miltenyi Biotec's Myeloid Derived Suppressor Cell Isolation Kit (130-094-538) and co-cultured with isolated CD8^+ T cells in serially diluted concentrations. T cell suppression assay: T cells (1×10^5; isolated with a CD8a^+ T cell isolation kit; Miltenyi Biotec) were cultured in plates with varying numbers of either G-MDSCs or M-MDSCs isolated from RENCA tumors for 16-18 hours. T cells isolated in the listed method were co-cultured with entinostat treated J774M cells for 68-72 hours. Cells were then harvested, stained and analyzed via FACS analysis. Cell staining and flow cytometry: Splenocytes, tumor cell suspensions, and peripheral blood cells were washed, blocked with Fc Block (anti-mouse CD16/32 mAb; BD Biosciences) at 4° C. for 15 minutes, and stained with fluorescence conjugated antibodies against surface markers: CD45 (clone 30-F11), CD11b (clone M1/70), Gr1 (clone RB6-8C5), Ly6C (clone AL-21), Ly6G (clone 1A8), F480 (clone BM8), CD8a (clone 53-6.7), CD4 (clone RM4-5) antibodies purchased from BioLegend, eBioscience or BD Biosciences. Cells were then fixed in Fixation/Permeabilization buffer (eBioscience) and stained with antibodies against intracellular proteins, including FoxP3 (NRRF-30) and Granzyme B (clone GB11). The antibodies were purchased from BD Biosciences, Biolegend, and R&D Systems and used in staining. […]

iNOS = assay: Fold change of iNOS in J774M cells; format: cell-based; conditions: J774M cells treated with entinostat
[2] = test system: T regulatory cells (CD4+FoxP3+); assay: FACS analysis of T regulatory cells in end-point blood and tumor samples; format: in vivo, Balb/c mice; conditions: blood
Protocol: (§1) Tumor suspension and spleenocyte preparation: Live tumor sections were isolated from tumors, cut into small pieces, and digested with an enzyme cocktail solution from the mouse tumor dissociation kit (Miltenyi Biotec—130-096-730). Tumors were incubated with the enzyme cocktail for 30 minutes at 37° C. with agitation. The enzyme reaction was arrested using PBS, cells were spun at 300 g, 4° C. for 7 minutes, re-suspended in PBS and mashed through a 70 um cell strainer. Cells from these tumors were either used for flow cytometry analysis or further processed and used for functional analyses.
Cell staining and flow cytometry: Splenocytes, tumor cell suspensions, and peripheral blood cells were washed, blocked with Fc Block (anti-mouse CD16/32 mAb; BD Biosciences) at 4° C. for 15 minutes, and stained with fluorescence conjugated antibodies against surface markers: CD45 (clone 30-F11), CD11b (clone M1/70), Gr1 (clone RB6-8C5), Ly6C (clone AL-21), Ly6G (clone 1A8), F480 (clone BM8), CD8a (clone 53-6.7), CD4 (clone RM4-5) antibodies purchased from BioLegend, eBioscience or BD Biosciences. Cells were then fixed in Fixation/Permeabilization buffer (eBioscience) and stained with antibodies against intracellular proteins, including FoxP3 (NRRF-30) and Granzyme B (clone GB11). The antibodies were purchased from BD Biosciences, Biolegend, and R&D Systems and used in staining. […]

[3] = test system: Myeloid derived suppressor cells (G-MDSCs, M-MDSCs); assay: FACS analysis of G-MDSC and M-MDSC in tumor and blood; format: in vivo, Balb/c mice
Protocol: as §1
Cell staining and flow cytometry: Splenocytes, tumor cell suspensions, and peripheral blood cells were washed, blocked with Fc Block (anti-mouse CD16/32 mAb; BD Biosciences) at 4° C. for 15 minutes, and stained with fluorescence conjugated antibodies against surface markers: CD45 (clone 30-F11), CD11b (clone M1/70), Gr1 (clone RB6-8C5), Ly6C (clone AL-21), Ly6G (clone 1A8), F480 (clone BM8), CD8a (clone 53-6.7), CD4 (clone RM4-5) antibodies purchased from BioLegend, eBioscience or BD Biosciences. Cells were then fixed in Fixation/Permeabilization buffer (eBioscience) and stained with antibodies against intracellular proteins, including FoxP3 (NRRF-30) and Granzyme B (clone GB11). The antibodies were purchased from BD Biosciences, Biolegend, and R&D Systems and used in staining. Stained cells and isotype-control-stained cells, were assayed on a LSR4 or Fortessa flow cytometer (BD Biosciences). Data analysis was performed using the FlowJo (FlowJo LLC) and/or ModFit LT 4.1 software.

[4] = test system: RENCA-Luc murine renal cell carcinoma; assay: In vivo tumor growth (RENCA), orthotopic RENCA-Luc syngeneic model; parameters: species or system Balb/c mice; conditions: vs control; entinostat 5 mg/kg oral 5 days/week, anti-PD-1 10 mg/kg I.P.; end-point tumor weight
Protocol: Cell lines: The RENCA-Luc murine renal cell carcinoma cell line, purchased from American Type Culture Collection (National Cancer Institute), was stably transfected with a luciferase reporter in the Pili laboratory. Cells were cultured using RPMI 1640 (Corning) with 10% fetal bovine serum (Corning) and 1% Pen/Strep (Life Technologies). Cells were incubated in an incubator maintained at 37° C. and 5% CO2. 75-80% confluent cells were harvested for orthotopic injection into the kidney of Balb/c mice using 0.25% Trypsin (Corning) and suspended in a 1:1 ratio of MATRIGEL® (Corning) and DPBS (Gibco).
In vivo tumor growth (RENCA): All procedures were performed and approved in strict accordance with the Institutional Animal Care and Use Committee (IACUC) at Roswell Park Cancer Institute, Indiana University School of Medicine, and with the NIH Guide for the Care and Use of Laboratory Animal guidelines.
Female five- to six-week old Balb/c mice (Charles Rivers) were maintained in a temperature controlled room with a 12/12 hour light/dark schedule and food provided ad libitum. 70-80% confluent RENCA-Luc cells were harvested using 0.25% Trypsin (Corning) and suspended in a 1:1 ratio of matrigel (Corning) and HBSS (Gibco), 10 μl containing 1×10^4 cells was injected under the renal capsule. […]

chemokines and cytokines = assay: Proteome Profiler Mouse XL Cytokine array (Ary028) of tumor lysates and serum; format: in vivo
Protocol: Proteome Profile: Tumor tissue was homogenized in PBS containing protease inhibitors. Following homogenization, Triton X-100 was added to a final concentration of 1%, frozen at −80° C., thawed, centrifuged as 10,000 g for 5 minutes, quantified and assayed according to the manufacturer's protocol. Blood samples were collected from mice in each cohort, allowed to clot for 2 hours at room temperature, centrifuged at 2000 g for 15 minutes. Serum samples were frozen at −80° C. until time of analysis at which time they were run according to manufacturer's protocol. All samples were processed and run on R&D Systems mouse XL cytokine array kit (Ary028).

J774M cells = assay: J774M cell proliferation or viability; format: cell-based; conditions: 0.01-5 μM, up to 48 hours
Protocol: The J774M cell line was cultured with DMEM (Corning) media with 10% fetal bovine serum (Corning) and 1% Pen/Strep (Life Technologies). Cells were incubated in 37° C. and 5% CO2.

[5] = test system: MDSC-like cell line J774M; assay: T cell suppression assay with entinostat treated J774M cells; format: cell-based; conditions: J774M treated 24 hours in vitro, co-culture with pre-activated CD8+ T cells 68-72 hours
Protocol: The J774M cell line was cultured with DMEM (Corning) media with 10% fetal bovine serum (Corning) and 1% Pen/Strep (Life Technologies). Cells were incubated in 37° C. and 5% CO2. […] T cell isolation & activation: Whole spleens were harvested from naïve mice, mashed and passed through a 70 μm strainer. Cells were then washed, lysed with RBC lysis buffer (Affymetrix 00-4333-57), and cultured in RPMI medium with 10% FBS, Pen (100 units/ml)-Strep ([…]), 1 mM sodium pyruvate, […] non-essential amino-acids, 2 mM L-Glutamine, 55 μM BME, with anti-CD3 (eBioscience 16-0031-85) and anti-CD28 (eBioscience 5012503) for approximately 24 hours. CD8^+ T cells were then isolated using a CD8a^+ T cell isolation kit from Miltenyi Biotec (130-104-075), stained with CFSE (NC9759757), according to the manufacturer's protocol, and co-cultured with MDSCs as described below. T cell suppression assay: T cells (1×10^5; isolated with a CD8a^+ T cell isolation kit; Miltenyi Biotec) were cultured in plates with varying numbers of either G-MDSCs or M-MDSCs isolated from RENCA tumors for 16-18 hours. T cells isolated in the listed method were co-cultured with entinostat treated J774M cells for 68-72 hours. Cells were then harvested, stained and analyzed via FACS analysis.

[6] = test system: advanced renal cell carcinoma; conditions: advanced renal cell carcinoma patients, cited from earlier work

Compound | arginase-1 (Arg1) expression (arginase-1 (Arg1)) | capacity of MDSCs (G-MDSC or M-MDSC) to inhibit CD8+ T cell proliferation ([1]; MDSC to T cell ratios 1:1, 0.5:1, 0.25:1, co-culture 16-18 hours, mice treated in vivo, p≤0.01) | CD8+ T cell proliferation in co-culture with MDSCs from treated mice ([1]; co-culture 16-18 hours, similar to control stimulated CD8+ T cells alone) | increase in Granzyme B production by CD8+ T cells ([1]; compared to co-culture with MDSCs from untreated tumor-bearing mouse, p<0.01) | iNOS fold change (iNOS) | FoxP3 protein levels (MFI) in circulating CD4+FoxP3+ cells [2] | tumor infiltrating G-MDSC population ([3]; TME, vs control) | tumor infiltrating M-MDSC population ([3]; TME, vs control) | circulating G-MDSCs ([3]; blood) | circulating M-MDSCs ([3]; blood) | tumor growth inhibition [4] | circulating pro-tumor associated chemokines and cytokines (chemokines and cytokines; serum vs control, adiponectin, angiopoietin-2, chitinase 3-like 1, CCL12, C5, c-reactive protein, IL-6, pentraxins 2/3, periostin, CCL17, M-CSF, GM-CSF, MMP-2, MMP-9, CCL2, osteoprotegerin, VCAM) | MDSC associated trafficking/accumulation and expansion/activation cytokines in the TME (chemokines and cytokines; tumor lysates vs control, CCL2, VCAM-1/CD106, Angiopoietin-2, G-CSF, GM-CSF, IL-1β, IL-10) | anti-tumor chemokines and cytokines in the TME (chemokines and cytokines; tumor lysates vs control, CXCL10/IP-10, E-selectin, IL-1ra, IL-4, IL-12p40) | upregulation of anti-tumor cytokines/chemokines (chemokines and cytokines; vs control cohort, CXCL9, CXCL10, IL-4, IL-13, E-selectin, IL-12p40) | J774M cell proliferation or viability (J774M cells) | CD8+ T cell proliferation in co-culture with treated J774M cells [5] | treatment related adverse events [6] | increase in overall survival ([6]; compared to standard of care, everolimus)
Nc1ccccc1NC(=O)c1ccc(CNC(=O)OCc2cccnc2)cc1 [entinostat, Pyridin-3-ylmethyl N-[[4-[(2-aminophenyl)carbamoyl]phenyl]methyl]carbamate] | significant inhibition | significant reduction | ~90% | approximately 40% | inconclusive results | significant decrease | slight increase | slight increase | slight decreases | significant increases | 52.6% | Significant decreases | significant reduction | significant upregulation | note observed | no significant alteration | significant increase |  | 
nivolumab: a PD-1 inhibitor, immune checkpoint inhibitor approved for advanced renal cell carcinoma |  |  |  |  |  |  |  |  |  |  |  |  |  |  |  |  |  | limited treatment related adverse events | 78%
